In US5665724A, “Substituted pyrimidinylaminothiazole derivatives useful as platelet aggregation inhibitors” (Ortho Pharmaceutical Corporation, priority 1995, dated 1997):
pIC50: −log10 of the molar value.

Experiments:
[1] = test system: fibrinogen binding to activated platelets; experiment: 125I-Fibrinogen binding to activated platelets; settings: thrombin-activated platelets, 125I-fibrinogen 0.15 μM; for % Inhibition Fibrinogen Binding @ 30 μM: 30 μM compound, 10 minutes, room temperature; for pIC50: printed in column % Inhibition Fibrinogen Binding @ 30 μM, read-out: Fibrinogen Binding, IC50 (concentration given in lieu of a percentage)
Protocol: The compounds of the invention as identified above are evaluated for platelet aggregation inhibition activity as indicated by the percentage of non-aggregated platelets which are available for binding in accordance with the following procedure.
^125 I-Fibrinogen binding to activated platelets is a modification of the procedure described by Bennett et al., 1988. Briefly, 40 mL of PRP (obtained from Biological Specialty Corp., Lansdale, Pa.) are centrifuged at 120×g to remove contaminating red cells. Aspirin (50 μM) is added and the PRP is incubated at 37° C. for 20 minutes. The pH of the PRP is adjusted to 6.5 with 3.8% sodium citrate and 0.9 μM of PGE1 is added. Platelets are concentrated by a 300×g centrifugation (10 minutes) and the pellet is resuspended in 4 mL. of Tyrode's buffer. The platelet suspension (4 mL) is gel-filtered through a Sepharose-2B column (50 mL bed volume). The platelet count is adjusted to 1×10^8 platelets per 200 mL. The binding reaction is performed in polystyrene tubes (final volume […]). Reagents are added in the following order: 80 mL of Tyrode's buffer, 50 mL of CaCl2 (final concentration (f.c.) […]) and 50 mL of thrombin (f.c. 0.1 unit/mL). The platelet suspension is then added and the mixture is allowed to incubate at room temperature for 2 minutes. Hirudin (50 mL, f.c. 0.5 unit/mL) is immediately added to prevent the catalytic activity of thrombin. Various concentrations of the compound to be tested […] with the competing radioligand ^125 I-fibrinogen (f.c. of 0.15 μM) are added. The mixture is incubated for 10 minutes at room temperature. To terminate the binding reaction the platelets are sedimented (10,000×g for 3 minutes) through silicone oil (3:1 hi-phenol 550/methyl silicone 200, W. F. Nye, Inc., New Bedford, Mass.), in an Eppendorf centrifuge.
The tips of the centrifuge tubes containing the pelleted platelets are cut off and counted for ^125 I-fibrinogen associated with the stimulated platelets. The amount of platelet radioactivity measured in the presence of nonlabeled fibrinogen (4 mg/mL) is considered the nonspecific binding. All samples are repeated in triplicate.
Data are expressed as a percent at concentrations of 30 μM of specifically bound ^125 I-fibrinogen to the platelets in Table 6 below. Positive percentages of fibrinogen binding indicates higher activity for inhibiting platelet aggregation since only non-aggregated or free platelets are available for fibrinogen binding. Alternatively, a concentration is provided in lieu of a percentage to indicate the IC50 of concentration of compound which provides 50% fibrinogen binding.

[2] = test system: platelets (platelet aggregation); experiment: Platelet aggregation inhibition (gel-filtered platelets, thrombin or ADP agonist, aggregometer); assay type: cell-based; settings: 37° C.; for pIC50: % Inhibition Platelet Aggregation @ 50 μM, read-out: Platelet Aggregation, concentration given in lieu of a percentage (IC50); for inhibition at 50 µM: Platelet, 50 μM compound, three minutes
Protocol: The percentage of platelet aggregation is calculated as an increase in light transmission of drug treated platelet concentrate vs control treated platelet concentrate. Blood is obtained from drug free, normal donors and placed into tubes containing 0.13M sodium citrate (two sources are routinely used: platelet concentrate obtained from Biological Specialty Corp., Lansdale, Pa. or whole blood obtained from donors). Platelet rich plasma (PRP) is collected by centrifugation of the concentrate or whole blood at 130×g for 15 minutes at 25° C. The PRP (5 mL) is gel filtered through Sepharose 2B (bed volume 50 mL), and the platelet count is adjusted to 2×10^7 platelets per sample. The following constituents are added to a siliconized cuvette: 250 μL of the concentrated platelet filtrate, 100 μL of Tyrode's buffer (0.14M NaCl, 0.0027M KCl, 0.012M NaHCO3, 0.76 mM Na2 HPO4, 0.0055M glucose and 2 mg/mL BSA pH 7.4), 50 μL of 2 mM calcium and test drug […]. Aggregation is monitored in a dual channel Chrono-log Aggregometer for three minutes following the addition of agonist (thrombin 50 μL of 1 unit/mL, or ADP 50 μL of 100 μM). The final assay volume is 500 μL. The reaction takes place at 37° C. The peak aggregation response is calculated as the increase in light transmission units over a three minute period. The difference of the increase in light transmission between control and drug treated platelets is then expressed as a percent of the nondrug treated controls.

| Structure (SMILES) | % Inhibition Fibrinogen Binding @ 30 μM [1] [%] | pIC50 [2] | inhibition at 50 µM [2] [%] | pIC50 [1] |
| --- | --- | --- | --- | --- |
| O=C(NCCCNC1CCCCC1)c1cnc(Nc2nc(-c3cccc(Cl)c3)cs2)nc1C(F)(F)F [Cmpd 15] | 73 | 4.83 |  |  |
| CCCCNCCCNC(=O)c1cnc(Nc2nc(-c3ccc(C)cc3)cs2)nc1C(F)(F)F [Cmpd 17] | 43 |  | 36 |  |
| O=C(NCCCNC1CCCCC1)c1cnc(Nc2nc(-c3cccc(C(F)(F)F)c3)cs2)nc1C(F)(F)F [Cmpd 6] |  | 4.82 |  | 4.52 |
| NCCCNC(=O)c1cnc(Nc2nc(-c3cccc(C(F)(F)F)c3)cs2)nc1C(F)(F)F [Cmpd 4] | 50 | 5.00 |  |  |
| O=C(NCCCN1CCCCC1)c1cnc(Nc2nc(-c3cccc(Cl)c3)cs2)nc1C(F)(F)F [Cmpd 13] | 16 |  | 94 |  |
| O=C(NCCCn1ccnc1)c1cnc(Nc2nc(-c3cccc(C(F)(F)F)c3)cs2)nc1C(F)(F)F [Cmpd 3] | 4 |  | 55 |  |
| O=C(NCCCNC1CCCCC1)c1cnc(Nc2nc(-c3cccc(C(F)(F)F)c3)cs2)nc1-c1ccccc1 [Cmpd 10] | 15 |  | 25 |  |
| O=C(NCCCNC1CCCC1)c1cnc(Nc2nc(-c3cccc(C(F)(F)F)c3)cs2)nc1C(F)(F)F [Cmpd 8] | 50 |  | 85 |  |
| CCN(CC)CCCNC(=O)c1cnc(Nc2nc(-c3ccc(C)cc3)cs2)nc1C(F)(F)F [Cmpd 2] | 12 |  | 75 |  |
| Cc1sc(Nc2ncc(C(=O)NCCCNC3CCCCC3)c(C(F)(F)F)n2)nc1-c1ccccc1 [Cmpd 18] | 47 |  | 58 |  |
| CCCCNCCCNC(=O)c1cnc(Nc2nc(-c3cccc(C(F)(F)F)c3)cs2)nc1C(F)(F)F [Cmpd 9] |  |  | 96 | 5.47 |
| O=C(NCCCN1CCCCCC1)c1cnc(Nc2nc(-c3cccc(Cl)c3)cs2)nc1C(F)(F)F [Cmpd 14] | 15 |  | 98 |  |
| COc1ccc(-c2csc(Nc3ncc(C(=O)NCCCN(C)C)c(C(F)(F)F)n3)n2)cc1 [Cmpd 5] | 47 |  | 96 |  |
| O=C(NCCCN1CCCCCC1)c1cnc(Nc2nc(-c3cccc(C(F)(F)F)c3)cs2)nc1C(F)(F)F [Cmpd 7] | 14 |  | 95 |  |
| CN1CCN(CCCNC(=O)c2cnc(Nc3nc(-c4cccc(C(F)(F)F)c4)cs3)nc2C(F)(F)F)CC1 [Cmpd 12] | 47 |  | 90 |  |
| CCCNCCCNC(=O)c1cnc(Nc2nc(-c3cccc(Cl)c3)cs2)nc1C(F)(F)F [Cmpd 16] | 20 |  | 96 |  |
| O=C(NCCCN1CCCC1=O)c1cnc(Nc2nc(-c3cccc(C(F)(F)F)c3)cs2)nc1C(F)(F)F [Cmpd 11] | 10 |  | 25 |  |
